One assay deals with OVCAR-3 cells. The experiment in a line: Inhibition of OVCAR-3 cell proliferation (CellTiter-Glo cell viability). In kind it is cell-based. Particulars: Homo sapiens; OVCAR-3 cells (TP53 R248Q mutation), 72 hours culture with compound; read-out: IC50. Summed up:
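OVCAR-3 cells (TP53 R248Q) in RPMI 1640 with 10% FBS were seeded at 1000 cells/well, grown overnight, then exposed to compound (final 1000 nM–0.015 nM) for 72 h at 37°C, 5% CO2. Viability was read by CellTiter-Glo luminescence. IC50 came from nonlinear regression of inhibition relative to 0.3% DMSO control.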
(In general: ATP-based viability assays read luminescence as a measure of living cells.)

For the next assay, the target named is T1, recombinant human KIF18A (Homo sapiens, UniProt Q8NI77).
T1 construct: purchased GenScript
T1 sequence (Q8NI77 whole entry): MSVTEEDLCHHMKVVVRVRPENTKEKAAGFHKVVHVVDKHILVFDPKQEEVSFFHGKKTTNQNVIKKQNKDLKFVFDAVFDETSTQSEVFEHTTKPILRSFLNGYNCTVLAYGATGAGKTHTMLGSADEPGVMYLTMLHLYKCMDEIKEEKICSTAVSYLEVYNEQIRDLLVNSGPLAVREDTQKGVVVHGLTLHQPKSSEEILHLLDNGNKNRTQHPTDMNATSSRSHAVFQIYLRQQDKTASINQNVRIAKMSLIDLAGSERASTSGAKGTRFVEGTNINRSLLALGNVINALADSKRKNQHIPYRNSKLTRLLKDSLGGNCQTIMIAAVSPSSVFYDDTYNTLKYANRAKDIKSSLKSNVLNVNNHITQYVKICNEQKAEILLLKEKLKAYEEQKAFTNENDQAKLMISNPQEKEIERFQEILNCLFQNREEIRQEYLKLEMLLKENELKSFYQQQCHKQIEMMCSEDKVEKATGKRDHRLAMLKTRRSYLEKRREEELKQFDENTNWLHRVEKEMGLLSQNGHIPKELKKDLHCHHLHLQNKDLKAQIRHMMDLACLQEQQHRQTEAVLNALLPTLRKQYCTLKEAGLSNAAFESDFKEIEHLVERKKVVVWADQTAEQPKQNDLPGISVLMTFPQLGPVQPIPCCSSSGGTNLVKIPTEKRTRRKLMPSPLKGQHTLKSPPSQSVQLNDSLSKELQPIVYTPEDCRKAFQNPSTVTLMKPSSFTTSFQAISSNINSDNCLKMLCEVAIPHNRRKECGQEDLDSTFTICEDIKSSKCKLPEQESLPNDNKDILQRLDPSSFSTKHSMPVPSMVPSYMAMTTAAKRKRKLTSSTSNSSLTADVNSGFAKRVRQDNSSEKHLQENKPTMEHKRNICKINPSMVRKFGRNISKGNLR
T1 sequence (P68363 whole entry partner): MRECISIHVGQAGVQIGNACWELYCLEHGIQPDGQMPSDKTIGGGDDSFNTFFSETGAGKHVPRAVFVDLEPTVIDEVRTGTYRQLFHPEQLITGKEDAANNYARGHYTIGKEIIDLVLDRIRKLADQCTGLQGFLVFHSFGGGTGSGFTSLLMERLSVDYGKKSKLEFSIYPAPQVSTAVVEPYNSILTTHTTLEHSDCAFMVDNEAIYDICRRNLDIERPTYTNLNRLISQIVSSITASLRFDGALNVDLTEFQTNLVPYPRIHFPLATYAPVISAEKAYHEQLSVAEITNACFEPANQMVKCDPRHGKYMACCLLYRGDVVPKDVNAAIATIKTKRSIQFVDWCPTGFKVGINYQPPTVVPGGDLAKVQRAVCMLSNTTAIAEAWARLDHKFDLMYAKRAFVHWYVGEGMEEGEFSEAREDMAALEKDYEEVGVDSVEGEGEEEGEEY
T1 sequence (Q9BVA1 whole entry partner): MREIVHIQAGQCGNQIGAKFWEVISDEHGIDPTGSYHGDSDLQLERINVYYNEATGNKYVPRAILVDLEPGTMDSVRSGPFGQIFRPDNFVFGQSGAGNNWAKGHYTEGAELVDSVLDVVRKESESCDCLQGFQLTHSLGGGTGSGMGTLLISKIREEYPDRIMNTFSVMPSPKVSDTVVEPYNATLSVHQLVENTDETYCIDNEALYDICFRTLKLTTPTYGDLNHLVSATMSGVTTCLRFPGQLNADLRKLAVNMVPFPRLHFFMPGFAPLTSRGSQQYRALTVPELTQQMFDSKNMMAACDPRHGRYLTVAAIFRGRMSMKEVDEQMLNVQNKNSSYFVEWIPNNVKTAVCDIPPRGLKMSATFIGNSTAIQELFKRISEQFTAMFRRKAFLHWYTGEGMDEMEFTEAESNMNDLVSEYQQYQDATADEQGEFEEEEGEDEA
In words: Inhibition of KIF18A enzyme activity (ADP-Glo assay). In kind it is biochemical. Particulars: recombinant human KIF18A 100 nM, ATP 60 µM, tubulin, paclitaxel; read-out: IC50. A general note: ADP-Glo first removes unused ATP, then detects ADP through luciferase.

pIC50: −log10 of the molar value.

One may read the pIC50 as the IC50 on a negative log10 scale, so that one unit is a factor of ten. For `CCS(=O)(=O)Nc1ccc(C(=O)Nc2ccc(-c3ncccn3)c(OCC(F)(F)F)c2)c(N2CCC3(CC2)CC3)c1` [Example 53, 4-(ethylsulfonamido)-N-(4-(pyrimidin-2-yl)-3-(2,2,2-trifluoroethoxy)phenyl)-2-(6-azaspiro[2.5]octan-6-yl)benzamide], the figures for the pIC50 in the assay with OVCAR-3 cells and on recombinant human KIF18A were 8.02 and 6.85, respectively.

Consider `CCS(=O)(=O)Nc1ccc(C(=O)Nc2ccc(-c3ncn(C)n3)c(OCC(F)(F)F)c2)c(N2CCC3(CC2)CC3)c1` [Example 47, 4-(ethylsulfonamido)-N-(4-(1-methyl-1H-1,2,4-triazol-3-yl)-3-(2,2,2-trifluoroethoxy)pheny 1)-2-(6-azaspiro[2.5]octan-6-yl)benzamide], for which the pIC50 is 8.24 in the assay with OVCAR-3 cells and 6.81 at recombinant human KIF18A.

Values taken from patent EP4748837A1, “AROMATIC AMIDE DERIVATIVE, AND PREPARATION METHOD THEREFOR AND USE THEREOF” (Zhejiang Hisun Pharmaceutical Co., Ltd., priority 2023, dated 2025).
